Tested on: ulcerative changes of the ileum, caecum and colon
Assay: Antiulcerative action in vivo, DSS-induced ulcerative changes in rats
Conditions: 75 mg/kg orally
From the text: Ulcerative changes of ileum, caecum and colon in rats were developed in five days by drinking water containing 2% of sodium dextran sulphate (DSS).
DSS is the compound which after oral administration in an aqueous solution induces inflammatory and ulcerative changes in the mucosa of ileum, caecum and colon in animals.
The animals were randomly assigned to the individual groups.
From experiment day 6 onward the animals were drinking water with 1% DSS. The animals in Group A received the pure compound LK 423 in a dose of 75 mg/kg. The pure compound LK 423 was prepared as suspension in 1% gelatin (Gelatin GE0020, Scharlau) and was given orally via the tube in a volume of 1 ml.
In Group B the animals received the microcapsules comprising LK 423 in a dose of 75 mg/kg (as prepared in Example 1). The microcapsules comprising LK 423 were given orally via the tube dispersed in 1.5 to 2 ml 1% of gelatin.
At baseline the rats had body weight from 220 to 250 g. […] At baseline and on days 6 and 12 the body weight was recorded. For determination of the hematology parameters 1.5 ml blood samples were taken from the periorbital sinus at baseline and on day 5 of the experiment and from the abdominal aorta on day 12. The erythrocyte count and hemoglobin and hematocrit values were performed in the clinical laboratory of the Institute for Health Protection of Ruminants, Faculty of Veterinary Science. […] Throughout the experiment survival of the animals, diarrhea and occurrence of blood in the feces or the intensity of bleeding were also observed. On day 12 the animals were sacrificed under deep ether anesthesia and post-mortem examination was performed. Macroscopic changes in the ileum, caecum and in the colon and the intensity of bleeding were observed.
At autopsy fragments of the intestine were taken from the animals and fixed in 10% formaldehyde; paraffin tissue sections were prepared and stained with hematoxylin and eosin. Pathohistological diagnosis was then performed.
In all groups (both control groups, group A and group B) (Table 3) the tissue damage and a reaction of the surrounding tissue to the damage (level of regeneration) as well as accompanying parameters of the scope of bleeding in the mucosa, hypertrophy of the mucosa with glandular hyperplasia and the degree of epithelialization of the damage surface were assessed. The criteria were as follows:
The Scope of Acute Bleeding with Respect to the Tissue and to the Diameter of the Field of View at 40-Fold Magnification (4 mm): • No bleeding—0 • Small bleeding in the propria and submucosa, with a diameter less than half of the field of view—1 • Moderate bleeding in the propria and submucosa, with a diameter to one half of the field of view—2 • Very extensive bleeding in the propria and submucosa with a diameter greater than half of the field of view—3 • Very extensive bleeding in the propria, submucosa, around the vessels in the tunica muscularis, tunica serosa, and in the supporting tissue—4 Regressive Process—Damage with a Defense Reaction of the Tissue: • No cellular response (no reaction) or the regressive process was no longer active—0 • Moderate cellular infiltration (monocytes, granulocytes, macrophage, histocytes) with karyorrhesis and pyknosis in the mucosa and the submucosa—1 • Severe diffuse cellular infiltration (monocytes, granulocytes, macrophage, histocytes) with karyorrhesis and pyknosis in the mucosa and the submucos—2 • Cellular infiltration (monocytes, granulocytes, macrophage, histocytes) in the demarcation line around the injury—3

With `C[C@H](NC(=O)COCCN1C(=O)c2ccccc2C1=O)C(=O)N[C@H](CCC(=O)O)C(=O)O` [LK 423, N-(2-(2-phthalimidoethoxy)-acetyl)-L-alanyl-D-glutamic acid] the “Blood in the feces” value was “+”, the Mortality was 33% and the “Percent of bleeding animals, Caecum” value was 17. For the same compound, the “Percent of bleeding animals, Colon” value was 17, the “Percent of bleeding animals, Ileum” value was 17 and the “Difference of hematology values from day 0 to 12, Erythrocytes” value (decrease from baseline) was 1.25 × 10^12/l. The “Difference of hematology values from day 0 to 12, Hematocrit” value (decrease from baseline) was 6.74%, the “Difference of hematology values from day 0 to 12, Hemoglobin” value (decrease from baseline) was 17.2 g/l and the “Level of bleeding in the mucosa” value (histological score) was 0.6. The “Cellular process in sacrificed animals, Epithelialization” value (histological score, day 12) was 2.37, the “Cellular process in sacrificed animals, Hypertrophy of the mucosa” value (histological score, day 12) was 2.75 and the “Cellular process in sacrificed animals, Level of damage” value (histological score, day 12) was 1.75. For the same compound, the “Cellular process in sacrificed animals, Level of regeneration” value (histological score, day 12) was 2.37 and the “regeneration of damages of the intestinal mucosa compared with both control groups” value (pathohistology) was “more rapid regeneration”.

From US20100183714A1, “GASTRORESISTANT PHARMACEUTICAL DOSAGE FORM COMPRISING N-(2-(2- PHTHALIMIDOETHOXY)-ACETYL)-L-ALANYL-D-GLUTAMIC ACID (LK-423)” (priority 2004, published 2010)
